As usually defined, the IC50 is the point on the concentration scale where inhibition reaches its midpoint.

Numbered stars: 1 amine (or outer) side, 2 acyl side, 3 side chain; on linkers, the order of the positions; unused ones are H or OH. Bridge positions count the residues as written; N and C are the ends. Square brackets hold non-standard residues; d marks the D form. Peptide text beside a SMILES is read from it. * marks the point of attachment. hPhe(3-Cl-4-CF3) = N[C@@H](CCc1ccc(C(F)(F)F)c(Cl)c1)C(=O)O; hPhe(3-F,4-CF3) = N[C@@H](CCc1ccc(C(F)(F)F)c(F)c1)C(=O)O; NMePhe(4-CF3) = CN[C@@H](Cc1ccc(C(F)(F)F)cc1)C(=O)O; 3Oxa8azabicyclo(3.2.1)octane = C1CC2COCC1N2*; NMePhe(4-Cl) = CN[C@@H](Cc1ccc(Cl)cc1)C(=O)O; NMedβ3hAla = C[C@H](CC(=O)[*:2])N(C)[*:1]; NMeAla(cPent) = CN[C@@H](CC1CCCC1)C(=O)O; NMeGly(cPent) = CN[C@H](C(=O)O)C1CCCC1; Pro(4,4-F2) = O=C(O)[C@@H]1CC(F)(F)CN1; NMeGly(cBu) = CN[C@H](C(=O)O)C1CCC1; NMeCha = CN[C@@H](CC1CCCCC1)C(=O)O; NMehLeu = CN[C@@H](CCC(C)C)C(=O)O; NEtLeu = CCN[C@@H](CC(C)C)C(=O)O; NMeChg = CN[C@H](C(=O)O)C1CCCCC1; NMeF = CN[C@@H](Cc1ccccc1)C(=O)O; NMeI = CC[C@H](C)[C@H](NC)C(=O)O; NMeD = CN[C@@H](CC(=O)O)C(=O)O; NMeL = CN[C@@H](CC(C)C)C(=O)O; Cba = N[C@@H](CC1CCC1)C(=O)O; NMePra = C#CC[C@H](NC)C(=O)O; NMeV = CN[C@H](C(=O)O)C(C)C; d(β3hA) = C[C@@H](N)CC(=O)O; Azetidin(1-yl) = C1CN(*)C1; NMeS = CN[C@@H](CO)C(=O)O; NMeA = CN[C@@H](C)C(=O)O; Piperidide = C1CCN(*)CC1; Pyrrolidide = C1CCN(*)C1; dNMeA = CN[C@H](C)C(=O)O; Ac5c = NC1(C(=O)O)CCCC1; Aze = O=C(O)[C@@H]1CCN1; Ac4c = NC1(C(=O)O)CCC1; Sar = CNCC(=O)O; Propyl = CCC*

The assay deals with protein-protein interaction between Kras and SOS1 (biotin-tagged human Kras loaded with GDP, His-tagged human SOS1) (Homo sapiens (Human), UniProt P01116, G12D). The assay is described as follows: Protein-protein interaction inhibition between Kras and SOS1 (KrasG12D-SOS PPI) using AlphaScreen.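 Also: kras produced in E. coli, Ni-coupled donor beads and streptavidin acceptor beads, excitation 680 nm with emission detected at 520–620 nm via singlet oxygen transfer.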 The conditions noted are these: AlphaScreen; biotin-tagged human Kras loaded with GDP, His-tagged human SOS1; read-out: KRAS G12D-SOS PPI IC50. The format is biochemical. In general terms: Bead proximity is the source of the signal in Alpha formats.
Turning to `C#CC[C@H]1C(=O)N[C@@H]([C@@H](C)CC)C(=O)N(C)[C@@H](C)C(=O)N2CC[C@H]2C(=O)N(C)[C@@H](CC2CCCCC2)C(=O)N(C)CC(=O)N[C@@H](CCc2ccc(C(F)(F)F)c(Cl)c2)C(=O)N2CCC[C@H]2C(=O)NC2(CCCC2)C(=O)N(C)[C@@H](C(C)C)C(=O)N(C)[C@H](C(=O)N2CCCCC2)CC(=O)N1C` [Compound 559] ([NMePra]I[NMeA][Aze][NMeCha][Sar][hPhe(3-Cl-4-CF3)]P[Ac5c][NMeV][NMeD]-Piperidide; lactam N-11), the IC50 was found to be 1.7 nM. The figure for `CCCOC[C@H]1C(=O)N(C)CC(=O)N[C@@H](CCc2ccc(C(F)(F)F)c(Cl)c2)C(=O)N2CCC[C@H]2C(=O)NC2(CCCC2)C(=O)N(C)[C@@H](C2CCCC2)C(=O)N(C)[C@H](C(=O)N2C3CCC2COC3)CC(=O)N(CC)[C@@H](CC(C)C)C(=O)N[C@@H]([C@@H](C)CC)C(=O)N[C@@H](C)C(=O)N2CC[C@H]2C(=O)N1C` [Compound 1167] ([NEtLeu]IA[Aze][NMeS](Propyl)[Sar][hPhe(3-Cl-4-CF3)]P[Ac5c][NMeGly(cPent)][NMeD]-{3Oxa8azabicyclo(3.2.1)octane}; lactam N-11) is 8.7 nM; for `CC[C@H](C)[C@@H]1NC(=O)[C@H](CC(C)C)N(C)C(=O)C[C@@H](C(=O)N2CCCCC2)N(C)C(=O)[C@H](CC(C)C)NC(=O)C(C)(C)N(C)C(=O)[C@H](COc2ccccc2)NC(=O)[C@H](Cc2cccc(I)c2)NC(=O)CN(C)C(=O)[C@H](Cc2ccc(C)cc2)N(C)C(=O)[C@@H]2CCN2C(=O)CN(C)C1=O` [Compound 2114, (6S,9S,13S,16S,22S,25S,31S,34S)-25-[(3-iodophenyl)methyl]-9,16-diisobutyl-4,10,14,19,19,20,29,32-octamethyl-6-[(1S)-1-methylpropyl]-22-(phenoxymethyl)-13-(piperidine-1-carbonyl)-31-(p-tolylmethyl)-1,4,7,10,14,17,20,23,26,29,32-undecazabicyclo[32.2.0]hexatriacontane-2,5,8,11,15,18,21,24,27,30,33-undecone] it is 110 nM; for `CCCOC[C@H]1C(=O)N2CC[C@H]2C(=O)N(C)[C@@H](CC2CCCCC2)C(=O)N(C)[C@H](C)C(=O)N[C@@H](CCc2ccc(C(F)(F)F)c(Cl)c2)C(=O)N2CCC[C@H]2C(=O)NC2(CCCC2)C(=O)N(C)[C@@H](C(C)C)C(=O)N[C@H](C)CC(=O)N(C)[C@@H](C)C(=O)N[C@@H]([C@@H](C)CC)C(=O)N1C` [Compound 2016] (cyclo([Ac5c][NMeV][d(β3hA)][NMeA]I[NMeS](Propyl)[Aze][NMeCha][dNMeA][hPhe(3-Cl-4-CF3)]P)) it is 270 nM. Turning to `CCCOC[C@H]1C(=O)N(C)CC(=O)N[C@@H](CCc2ccc(C(F)(F)F)c(F)c2)C(=O)N2CCC[C@H]2C(=O)NC2(CCCC2)C(=O)N(C)[C@@H]([C@@H](C)CC)C(=O)N(C)[C@H](C(=O)N2CCCC2)CC(=O)N(C)[C@@H](CC(C)C)C(=O)N[C@@H]([C@@H](C)CC)C(=O)N(C)[C@@H](C)C(=O)N2CC[C@H]2C(=O)N1C` [Compound 684] ([NMeL]I[NMeA][Aze][NMeS](Propyl)[Sar][hPhe(3-F,4-CF3)]P[Ac5c][NMeI][NMeD]-Pyrrolidide; lactam N-11), the IC50 amounted to 1.9 nM.

Regarding `CC[C@H](C)[C@@H]1NC(=O)[C@H](CCC(C)C)N(C)C(=O)C[C@@H](C(=O)N(C)C)N(C)C(=O)[C@H](C2CCCC2)N(C)C(=O)C2(CCCC2)NC(=O)[C@@H]2CCCN2C(=O)[C@H](CCc2ccc(C(F)(F)F)c(F)c2)NC(=O)CN(C)C(=O)[C@H](CC2CCCCC2)N(C)C(=O)[C@@H]2CCN2C(=O)[C@H](C)NC1=O` [Compound 1292] ([NMehLeu]IA[Aze][NMeCha][Sar][hPhe(3-F,4-CF3)]P[Ac5c][NMeGly(cPent)][NMeD]-NMe2; lactam N-11), the half-inhibitory concentration (IC50) amounted to 2 nM. On to `CC[C@H](C)[C@@H]1NC(=O)[C@H](CC2CCCC2)N(C)C(=O)C[C@@H](C(=O)N2CCC2)N(C)C(=O)[C@H](C2CCCC2)N(C)C(=O)C2(CCCC2)NC(=O)[C@@H]2CCCN2C(=O)[C@H](CCc2ccc(C(F)(F)F)c(Cl)c2)NC(=O)CN(C)C(=O)[C@H](CC2CCCCC2)N(C)C(=O)[C@@H]2CCN2C(=O)[C@H](C)NC1=O` [Compound 921] ([NMeAla(cPent)]IA[Aze][NMeCha][Sar][hPhe(3-Cl-4-CF3)]P[Ac5c][NMeGly(cPent)][NMeD]-{Azetidin(1-yl)}; lactam N-11), for which the IC50 turned out to be 1.1 nM. Take `CC[C@H](C)[C@@H]1NC(=O)[C@H](CC(C)C)N(C)C(=O)C[C@@H](C)N(C)C(=O)[C@H](C(C)C)N(C)C(=O)C2(CCCC2)NC(=O)[C@@H]2CCCN2C(=O)[C@H](CCc2ccc(C(F)(F)F)c(Cl)c2)NC(=O)CN(C)C(=O)[C@H](CC2CCCCC2)N(C)C(=O)[C@@H]2CCN2C(=O)CN(C)C1=O` [Compound 1648] (cyclo([Ac5c][NMeV][NMedβ3hAla][NMeL]I[Sar][Aze][NMeCha][Sar][hPhe(3-Cl-4-CF3)]P)): the 50% inhibitory concentration (IC50) stood at 10 nM. With `CC[C@H](C)[C@@H]1NC(=O)[C@H](C)N(C)C(=O)C[C@@H](C)NC(=O)[C@H](CC(C)C)N(C)C(=O)[C@H](Cc2ccccc2)N(C)C(=O)[C@H](CC(C)C)NC(=O)[C@H](CCc2ccc(C(F)(F)F)c(Cl)c2)NC(=O)CN(C)C(=O)[C@H](Cc2ccc(Cl)cc2)N(C)C(=O)CN(C)C(=O)CN(C)C1=O` [Compound 2088] (cyclo(I[Sar][Sar][NMePhe(4-Cl)][Sar][hPhe(3-Cl-4-CF3)]L[NMeF][NMeL][d(β3hA)][NMeA])) the figure was 30 nM; with `CC(C)C[C@H]1C(=O)N[C@@H](CC2CCC2)C(=O)N(C)[C@@H](C)C(=O)N2CC[C@H]2C(=O)N(C)[C@@H](CC2CCCCC2)C(=O)N(C)CC(=O)N[C@@H](CCc2ccc(C(F)(F)F)c(Cl)c2)C(=O)N2CCC[C@H]2C(=O)NC2(CCCC2)C(=O)N(C)[C@@H](C(C)C)C(=O)N(C)[C@H](C(=O)N2CCCCC2)CC(=O)N1C` [Compound 733] ([NMeL][Cba][NMeA][Aze][NMeCha][Sar][hPhe(3-Cl-4-CF3)]P[Ac5c][NMeV][NMeD]-Piperidide; lactam N-11), 51 nM; with `CC[C@H](C)[C@@H]1NC(=O)[C@H](CC(C)C)N(C)C(=O)C[C@@H](C)N(C)C(=O)[C@H](C2CCCCC2)N(C)C(=O)C2(CCC2)NC(=O)[C@@H]2CC(F)(F)CN2C(=O)[C@H](CCc2ccc(C(F)(F)F)c(Cl)c2)NC(=O)CN(C)C(=O)[C@H](Cc2ccc(C(F)(F)F)cc2)N(C)C(=O)[C@@H]2CCN2C(=O)[C@H](C)N(C)C1=O` [Compound 505] (cyclo([Ac4c][NMeChg][NMedβ3hAla][NMeL]I[NMeA][Aze][NMePhe(4-CF3)][Sar][hPhe(3-Cl-4-CF3)][Pro(4,4-F2)])), 86 nM. In the case of `CC[C@H](C)[C@@H]1NC(=O)[C@H](CC(C)C)N(C)C(=O)C[C@@H](C(=O)N(C)C)N(C)C(=O)[C@H]([C@@H](C)CC)N(C)C(=O)C2(CCCC2)NC(=O)[C@@H]2CCCN2C(=O)[C@H](CCc2ccc(C(F)(F)F)c(Cl)c2)NC(=O)CN(C)C(=O)[C@H](C2CCC2)N(C)C(=O)[C@@H]2CCN2C(=O)[C@H](C)N(C)C1=O` [Compound 1961] ([NMeL]I[NMeA][Aze][NMeGly(cBu)][Sar][hPhe(3-Cl-4-CF3)]P[Ac5c][NMeI][NMeD]-NMe2; lactam N-11), the IC50 is 1.8 nM.

The values are drawn from patent US20240148821A1, “PHARMACEUTICAL USE OF CYCLIC PEPTIDE COMPOUND” (CHUGAI SEIYAKU KABUSHIKI KAISHA, priority 2021, published 2024).
